In patent publication US20020122768A1, “Stable radiopharmaceutical compositions and methods for preparation thereof” (priority 2000, published 2002):

How the values were obtained:
[1] = Solution stability of ^90Y-B at −78° C., RCP by radio-HPLC; format: physicochemical; settings: ^90Y-B prepared with GA; for RCP (%) t = 0 / RCP (%) t = 3 days / RCP (%) t = 7 days: degassed, second stabilizer (20 mg AA, 20 mg DSA, 10 mg 2,3,4-THBA, 10 mg HABA) added post-labeling; for RCP (%) change: second stabilizer added post-labeling, t = 0 to 7 days
Method: The integrity of a radiopharmaceutical is measured by the radiochemical purity (RCP) of the radiolabeled compound using ITLC or more preferably HPLC. The advantage of using HPLC is that radio-impurities caused by radiolytic degradation can be separated from the radiopharmaceutical under optimized chromatographic conditions. […] The radiopharmaceutical compositions of this invention are effective in maintaining the long-term stability of samples that have been frozen, thawed, and re-tested periodically for 7 days.
The initial RCP of a radiopharmaceutical is largely dependent on radiolabeling conditions such as pH, heating temperature and time. Once a radiopharmaceutical is prepared in high yield, the stability of the radiopharmaceutical composition is measured by the` RCP change of the radiopharmaceutical over a certain period of time. For comparison purposes, sodium gentisate or sodium ascorbate was often used as the reference since they have been used in various radiopharmaceutical formulations.
HPLC method 2 used a HP-1100 HPLC system with a UV/visible detector (λ=220 nm), an IN-US radio-detector, and a Zorbax C18 column (4.6 mm×250 mm, 80 Å pore size). The flow rate was 1 mL/min with a gradient mobile phase starting from 92% solvent A (0.025 M ammonium acetate buffer, pH 6.8) and 8% solvent B (acetonitrile) at 0 min to 90% solvent A and 10% solvent B at 18 min, followed by an isocratic wash using 40% of solvent A and 60% solvent B from 19 to 25 min.
The ITLC method used Gelman Sciences silica-gel ITLC paper strips and 1:1 mixture of acetone and saline as eluant. By this method, the radiolabeled compounds migrate to the solvent front while [^90Y]/^177Lu]colloid and [^90Y]/^177Lu]acetate remain at the origin. […]
The 0.5 M ammonium acetate buffer (pH 8.0) was first degassed under vacuum for 1-2 min. COMPOUND B and gentisic acid (sodium salt, GA) were dissolved in the degassed buffer to give a concentration of 100 μg/mL for COMPOUND B and 20 mg/mL for GA. The resulting solution was immediately degassed under vacuum for another 1-2 min. To a clean sealed 5 mL vial was added 1.0 mL of the degassed 0.5 M ammonium acetate buffer (pH 8.0) containing 100 μg COMPOUND B and 10 mg GA. The solution was degassed again under vacuum. Upon addition of ˜20 μL of ^90YCl3 solution (˜20 mCi) in 0.05 N HCl, the reaction mixture was heated at 100° C. for 5 min. After cooling to room temperature, a sample of the resulting solution was diluted 20-fold with saline containing gentisate (10 mg/mL), and was then analyzed by HPLC (Method 2, injection volume=1-2 μL) and ITLC. […] To the solution above was added 0.5 mL of sodium ascorbate solution (40 mg/mL in 0.5 M ammonium acetate buffer, pH=7.4). The resulting mixture was then kept in a dry-ice box (−78° C.) for 7 days. Samples were analyzed at t=0, 3 and 7 days.
The 0.5 M ammonium acetate buffer (pH 8.0) was first degassed under vacuum for 1-2 min. COMPOUND B and gentisic acid (sodium salt, GA) were dissolved in the degassed buffer to give a concentration of 100 μg/mL for COMPOUND B and 20 mg/mL for GA. The resulting solution was immediately degassed under vacuum for another 1-2 min. To a clean sealed 5 mL vial was added 1.0 mL of the degassed 0.5 M ammonium acetate buffer (pH 8.0) containing 100 μg COMPOUND B and 10 mg GA. The solution was degassed again under vacuum. Upon addition of ˜20 μL of ^90YCl3 solution (˜20 mCi) in 0.05 N HCl, the reaction mixture was heated at 100° C. for 5 min. After cooling to room temperature, a sample of the resulting solution was diluted 20-fold with saline containing gentisate (10 mg/mL), and was then analyzed by HPLC (Method 2, injection volume=1-2 μL) and ITLC. […] To the solution above was added 0.5 mL of 2,3,4-trihydroxybenzoic acid solution (20 mg/mL in 0.5 M ammonium acetate buffer, pH=6.5). The resulting mixture was then kept in a dry-ice box (−78° C.) for 7 days. Samples were analyzed at t=0, 3 and 7 days. […]

[2] = Solution stability of ^90Y-A at room temperature, RCP by radio-HPLC; format: physicochemical; settings: for RCP (%) change: ^90Y-A, t = 0 h to last time point
Method: The advantage of using HPLC is that radio-impurities caused by radiolytic degradation can be separated from the radiopharmaceutical under optimized chromatographic conditions.
The initial RCP of a radiopharmaceutical is largely dependent on radiolabeling conditions such as pH, heating temperature and time. Once a radiopharmaceutical is prepared in high yield, the stability of the radiopharmaceutical composition is measured by the` RCP change of the radiopharmaceutical over a certain period of time.
Analytical Methods. HPLC method 1 used a HP-1100 HPLC system with a UV/visible detector (λ=220 nm), an IN-US radio-detector, and a Zorbax C18 column (4.6 mm×250 mm, 80 Å pore size).
The ITLC method used Gelman Sciences silica-gel ITLC paper strips and 1:1 mixture of acetone and saline as eluant.
(§1) The reaction mixture was heated at 100° C. for 10 min. A sample of the resulting solution was first diluted 20-fold with 2 mM DTPA solution (pH=5), and was then analyzed by HPLC (Method 1, injection volume=1-2 μL) and ITLC. […] The resulting solution was kept at room temperature for 6 days.
as §1, §1
The reaction mixture was heated at 100° C. for 10 min. A sample of the resulting solution was first diluted 20-fold with 2 mM DTPA solution (pH=5), and was then analyzed by HPLC (Method 1, injection volume 1-2 μL) and ITLC. […] The resulting solution was kept at room temperature for 7 days.
(§2) The reaction mixture was heated at 100° C. for 10 min. A sample of the resulting solution was first diluted 20-fold with 2 mM DTPA solution (pH=5), and was then analyzed by HPLC (Method 1, injection volume=1-2 μL) and ITLC. […] The resulting solution was kept at room temperature for 7 days.
as §2, §2

[3] = ^90Y-A (~20 mCi), 10 mg stabilizer, room temperature
[4] = 10 mg stabilizer, room temperature
[5] = ^90Y-A (~20 mCi), 2 mg stabilizer, room temperature

| RCP (%) t = 0 [1] [%] | RCP (%) t = 3 days [1] [%] | RCP (%) t = 7 days [1] [%] | RCP (%) change [1] [%] | RCP (%) t = 0 h [2, 3] [%] | RCP (%) t = 24 h [2, 3] [%] | RCP (%) t = 72 h [2, 3] [%] | RCP (%) t = 148 h [2, 3] [%] | RCP (%) change [2, 4] [%] | RCP (%) t = 0 h [2, 5] [%] | RCP (%) t = 24 h [2, 5] [%] | RCP (%) t = 48 h [2, 5] [%] | RCP (%) t = 120 h [2, 5] [%] | RCP (%) t = 144 h [2, 5] [%] | stabilization compared with GA ([2]; ^90Y-A at room temperature, 2 mg stabilizer) | Compound |
| --- | --- | --- | --- | --- | --- | --- | --- | --- | --- | --- | --- | --- | --- | --- | --- |
| 94.2 | 93.6 | 93.9 | 0.3 |  |  |  |  |  |  |  |  |  |  |  | O=C(O)c1ccc(O)c(O)c1O [2,3,4-THBA, 2,3,4-trihydroxybenzoic acid] |
| 94.4 | 94.8 | 94.5 | 0.1 | 92.2 | 89.3 | 82.8 | 80.5 | 11.7 |  |  |  |  |  |  | 2,4-disulfonatobenzeneamine [DSA] |
|  |  |  |  | 93.3 | 92.4 | 88 | 79.5 | 13.8 | 95.3 | 89.3 | 80.6 | 74.3 | 73.4 | better stabilizers than GA | O=C(O)c1cc(O)c(O)c(O)c1 [3,4,5-THBA, 3,4,5-trihydroxybenzoic acid] |
